Earlier results, collected in US6365551B1, “Highly concentrated glyphosate herbicidal compositions” (Monsanto Technology LLC, priority 1990, dated 2002).

Settings: glyphosate in acid form

O=C(O)CNCP(=O)(O)O [glyphosate, N-phosphonomethylglycine]
water solubility: about 1.2%
